This passage reports IC50 results from US7973069B2 (PTC Therapeutics, Inc., priority 2004, dated 2011).

The structures appear in SMILES notation. Several values for one entry are separate records, joined by “and”; a condition that tells them apart may be missing. Identical values can stand only once. Where only a bound is given, the exact number is not on record here.

For this experiment, the system named is HCV replicon. Format: cell-based.
`CCn1c(-c2ccc(N3CCCS3(=O)=O)cc2)c(C#N)c2ccc(NC(=O)OC(C)(C)C)cc21` [Compound 1049] returned a concentration for half-maximal inhibition (IC50) below 0.5 µM.
The result for `CCn1c(-c2ccc(N3CCCS3(=O)=O)cc2)c(C#N)c2ccc(N)cc21` [Compound 1050] reads 0.5 to 2 µM.
Next, `CCn1c(-c2ccc(N3CCNC3=O)cc2)c(C#N)c2ccc(OCCCCl)cc21` [Compound 1051]: 0.5 to 2 µM.
The result for `CCn1c(-c2ccc(N3CCOC3=O)cc2)c(C#N)c2ccc(OCCCCl)cc21` [Compound 1052] reads 0.5 to 2 µM.
Take `CCn1c(-c2ccc(N3CCCS3(=O)=O)cc2)c(C#N)c2ccc(Oc3cnccn3)cc21` [Compound 1053]: the concentration for half-maximal inhibition (IC50) was 0.5 to 2 µM.
Next, `CCn1c(-c2ccc(NC(=O)C3CC3)cc2)c(C#N)c2ccc(OCCN3CCCC3)cc21` [Compound 1054]: 0.5 to 2 µM; `CCCOC(=O)Nc1ccc(-c2c(C#N)c3ccc(OCC)cc3n2CCC)cc1` [Compound 1055]: 0.5 to 2 µM and < 0.5 µM.
Next, `CCCn1c(-c2ccc(NC(=O)OC(C)C)cc2)c(C#N)c2ccc(OCC)cc21` [Compound 1056]: below 0.5 µM; `CCOc1ccc2c(C#N)c(-c3ccc(NC(=O)OC(C)C)cc3)n(C(C)C)c2c1` [Compound 1058]: below 0.5 µM; `CCOc1ccc2c(C#N)c(-c3ccc(NC(=O)OCCF)cc3)n(CC(C)C)c2c1` [Compound 1059]: 0.5 to 2 µM.
Molecule `CCNC(=O)Nc1ccc(-c2c(C#N)c3ccc(OCC)cc3n2CC(C)C)cc1` [Compound 1060] returned an IC50 of 0.5 to 2 µM.
Next, `CCCNC(=O)Nc1ccc(-c2c(C#N)c3ccc(OCC)cc3n2CC(C)C)cc1` [Compound 1061]: 0.5 to 2 µM; `CCCn1c(-c2ccc(NC(=O)OC)cc2)c(C#N)c2ccc(OCC)cc21` [Compound 1062]: 0.5 to 2 µM.
Next, `CCCn1c(-c2ccc(NC(=O)OCC)cc2)c(C#N)c2ccc(OCC)cc21` [Compound 1063]: 0.5 to 2 µM.
The result for `CCCn1c(-c2ccc(NC(=O)OCCF)cc2)c(C#N)c2ccc(OCC)cc21` [Compound 1064] reads 0.5 to 2 µM; that for `CCOC(=O)Nc1ccc(-c2c(C#N)c3ccc(OCC)cc3n2C(C)C)cc1` [Compound 1065], 0.5 to 2 µM and < 0.5 µM; that for `CCCCn1c(-c2ccc(NC(=O)NCCC)cc2)c(C#N)c2ccc(OCC)cc21` [Compound 1066], 0.5 to 2 µM.
`CCCCNC(=O)Nc1cccc(-c2c(C#N)c3ccc(OCCCN4CCOCC4)cc3n2CC)c1` [Compound 1067] showed an IC50 of 0.5 to 2 µM.
The result for `CCn1c(-c2cccc(N3CCNC3=O)c2)c(C#N)c2ccc(OCCCN3CCOCC3)cc21` [Compound 1068] reads 0.5 to 2 µM; that for `CCn1c(-c2cccc(N3CCOC3=O)c2)c(C#N)c2ccc(OCCCN3CCOCC3)cc21` [Compound 1069], 0.5 to 2 µM; that for `C=CCNC(=O)Nc1ccc(-c2c(C#N)c3ccc(OC(F)F)cc3n2CC2CC2)cc1` [Compound 1070], 0.5 to 2 µM.
The result for `CC(C)COC(=O)Nc1ccc(-c2c(C#N)c3ccc(OC(F)F)cc3n2CC2CC2)cc1` [Compound 1071] reads 0.5 to 2 µM and > 2 µM; that for `CCOc1ccc2c(C#N)c(-c3ccc(NC(=O)OC(C)(C)C)cc3)n(C3CCC3)c2c1` [Compound 1072], below 0.5 µM.
Turning to `CCOC(=O)Nc1ccc(-c2c(C#N)c3ccc(OC)cc3n2C2CCC2)cc1` [Compound 1073], the concentration for half-maximal inhibition (IC50) lay within 0.5 to 2 µM.
In turn, `CCCOC(=O)Nc1ccc(-c2c(C#N)c3ccc(OC)cc3n2C2CCC2)cc1` [Compound 1074] came in with an IC50 of 0.5 to 2 µM.
Next, `CCCCOC(=O)Nc1ccc(-c2c(C#N)c3ccc(OC)cc3n2C2CCC2)cc1` [Compound 1075]: 0.5 to 2 µM.
In the case of `COc1ccc2c(C#N)c(-c3ccc(NC(=O)OC(C)C)cc3)n(C3CCC3)c2c1` [Compound 1076], the half-maximal inhibitory concentration (IC50) is below 0.5 µM.
The result for `CCCCOC(=O)Nc1ccc(-c2c(C#N)c3ccc(OC)cc3n2C2CCC2)cc1` [Compound 1077] reads below 0.5 µM; that for `COc1ccc2c(C#N)c(-c3ccc(NC(=O)OCC(C)(C)C)cc3)n(C3CCC3)c2c1` [Compound 1078], < 0.5 µM and 0.5 to 2 µM.
`COc1ccc2c(C#N)c(-c3ccc(NC(=O)OCc4ccccc4)cc3)n(C3CCC3)c2c1` [Compound 1079] had a 50% inhibitory concentration (IC50) below 0.5 µM.
`CCOc1ccc2c(C#N)c(-c3ccc(NC(=O)NC(C)C)cc3)n(C3CCC3)c2c1` [Compound 1080] gave an IC50 below 0.5 µM.
The result for `CCOP(=O)(Nc1ccc(-c2c(C#N)c3ccc(OC)cc3n2C2CCC2)cc1)OCC` [Compound 1081] reads 0.5 to 2 µM; that for `COc1ccc2c(C#N)c(-c3ccc(NC(=O)NC(C)C)cc3)n(C3CCC3)c2c1` [Compound 1082], 0.5 to 2 µM; that for `CCn1c(-c2ccc(N3CCOC3=O)cc2)c(C#N)c2ccc(OCCCn3cncn3)cc21` [Compound 1084], 0.5 to 2 µM.
The result for `CCn1c(-c2ccc(N3CCNC3=O)cc2)c(C#N)c2ccc(OCCCN3CCCC3)cc21` [Compound 1085] reads below 0.5 µM; that for `CCCCOC(=O)Nc1ccc(-c2c(C#N)c3ccc(O)cc3n2CC)cc1` [Compound 1086], below 0.5 µM; that for `CCn1c(-c2ccc(NC(=O)N3CCOCC3)cc2)c(C#N)c2ccc(OC)cc21` [Compound 1087], 0.5 to 2 µM.
The result for `CCn1c(-c2ccc(NC(=O)N3CCCCC3)cc2)c(C#N)c2ccc(OC)cc21` [Compound 1088] reads 0.5 to 2 µM; that for `CCn1c(-c2ccc(NC(=O)N3CCCC3)cc2)c(C#N)c2ccc(OC)cc21` [Compound 1089], 0.5 to 2 µM; that for `CCn1c(-c2ccc(NC(=O)C3CC3)cc2)c(C#N)c2ccc(OCCN3CCSCC3)cc21` [Compound 1090], 0.5 to 2 µM.
Take `CCn1c(-c2ccc(NC(=O)C3CC3)cc2)c(C#N)c2ccc(OCCN(C)CCOC)cc21` [Compound 1091]: the IC50 is 0.5 to 2 µM.
With `CCn1c(-c2ccc(NC(=O)C3CC3)cc2)c(C#N)c2ccc(OCCn3cnnc3)cc21` [Compound 1092], the 50% inhibitory concentration (IC50) lay in the range of 0.5 to 2 µM.
Next, `CCn1c(-c2ccc(NC(=O)C3CC3)cc2)c(C#N)c2ccc(OCCn3cncn3)cc21` [Compound 1093]: 0.5 to 2 µM; `CCCn1c(-c2ccc(NC(=O)NCC)cc2)c(C#N)c2ccc(OCC)cc21` [Compound 1094]: 0.5 to 2 µM; `CCCNC(=O)Nc1ccc(-c2c(C#N)c3ccc(OCC)cc3n2CCC)cc1` [Compound 1095]: below 0.5 µM.
Next, `CCCCNC(=O)Nc1ccc(-c2c(C#N)c3ccc(OCC)cc3n2CCC)cc1` [Compound 1097]: below 0.5 µM.
`CCNC(=O)Nc1ccc(-c2c(C#N)c3ccc(OCC)cc3n2C(C)C)cc1` [Compound 1098] returned an IC50 of 0.5 to 2 µM.
In turn, `CCCNC(=O)Nc1ccc(-c2c(C#N)c3ccc(OCC)cc3n2C(C)C)cc1` [Compound 1099] gave an IC50 of 0.5 to 2 µM.
Next, `CCOc1ccc2c(C#N)c(-c3ccc(NC(=O)NC(C)C)cc3)n(C(C)C)c2c1` [Compound 1100]: below 0.5 µM; `CCCCNC(=O)Nc1ccc(-c2c(C#N)c3ccc(OCC)cc3n2C(C)C)cc1` [Compound 1101]: below 0.5 µM; `CCOc1ccc2c(C#N)c(-c3ccc(NC(=O)NCCc4ccccc4)cc3)n(C(C)C)c2c1` [Compound 1102]: below 0.5 µM.
The molecule `COc1ccc2c(C#N)c(-c3ccc(NS(=O)(=O)C(C)C)cc3)n(C3CCC3)c2c1` [Compound 1103] gave a 50% inhibitory concentration (IC50) of 0.5 to 2 µM.
Next, `COc1ccc2c(C#N)c(-c3ccc(N4CCCS4(=O)=O)cc3)n(C3CCC3)c2c1` [Compound 1104]: 0.5 to 2 µM; `COc1ccc2c(C#N)c(-c3ccc(NC(=O)NC4CCCC4)cc3)n(C3CCC3)c2c1` [Compound 1106]: below 0.5 µM.
The result for `CC(C)NC(=O)Nc1ccc(-c2c(C#N)c3ccc(OCCF)cc3n2C2CCC2)cc1` [Compound 1108] reads below 0.5 µM.
The result for `CCOc1ccc2c(C#N)c(-c3ccc(NC(=O)OC4CCCC4)cc3)n(C3CCC3)c2c1` [Compound 1109] reads below 0.5 µM; that for `CCN1CCN(c2ccc(-c3c(C#N)c4ccc(OC)cc4n3CC)cc2)S1(=O)=O` [Compound 1110], 0.5 to 2 µM; that for `C=CCOC(=O)Nc1ccc(-c2c(C#N)c3cc(OC)c(OC)cc3n2CC)cc1` [Compound 1111], 0.5 to 2 µM.
`CCn1c(-c2ccc(NC(=O)OC)cc2)c(C#N)c2ccc(OCCCN3CCOCC3)cc21` [Compound 1112] displayed an IC50 of 0.5 to 2 µM.
The result for `CCn1c(-c2ccc(NC(=O)OCCF)cc2)c(C#N)c2ccc(OCCCN3CCOCC3)cc21` [Compound 1113] reads 0.5 to 2 µM.
The result for `CCn1c(-c2ccc(NC(=O)OCCCl)cc2)c(C#N)c2ccc(OCCCN3CCOCC3)cc21` [Compound 1114] reads below 0.5 µM; that for `CCn1c(-c2ccc(NS(=O)(=O)CC)cc2)c(C#N)c2ccc(OCCCN3CCOCC3)cc21` [Compound 1115], 0.5 to 2 µM; that for `CCn1c(-c2ccc(NC(=O)OCCCl)cc2)c(C#N)c2ccc(OCCCN3CCOCC3)cc21` [Compound 1116], 0.5 to 2 µM.
For the molecule `CCn1c(-c2ccc(NS(=O)(=O)C3CC3)cc2)c(C#N)c2ccc(OCCCN3CCOCC3)cc21` [Compound 1117], the concentration for half-maximal inhibition (IC50) was 0.5 to 2 µM.
Next, `CCn1c(-c2ccc(NC(=O)NC)cc2)c(C#N)c2ccc(OCCCN3CCOCC3)cc21` [Compound 1118]: 0.5 to 2 µM; `CCCn1c(-c2ccc(NC(=O)NC(C)CC)cc2)c(C#N)c2ccc(OC)cc21` (stereo not drawn) [Compound 1119]: 0.5 to 2 µM.
In the case of `CCOc1ccc2c(C#N)c(-c3ccc(NC(=O)NC(C)C)cc3)n(CC3CC3)c2c1` [Compound 1120], the 50% inhibitory concentration (IC50) is below 0.5 µM.
The result for `CC(C)(C)OC(=O)Nc1ccc(-c2c(C#N)c3ccc(OCCN4CCCC4)cc3n2C2CCC2)cc1` [Compound 1121] reads below 0.5 µM.
The molecule `CCCOC(=O)Nc1ccc(-c2c(C#N)c3ccc(OCCCN4CCOCC4)cc3n2CC)cc1` [Compound 1122] had an IC50 below 0.5 µM.
The result for `CCNC(=O)Nc1ccc(-c2c(C#N)c3ccc(OCCCN4CCOCC4)cc3n2CC)cc1` [Compound 1124] reads < 0.5 µM and 0.5 to 2 µM; that for `C=CCNC(=O)Nc1ccc(-c2c(C#N)c3ccc(OCCCN4CCOCC4)cc3n2CC)cc1` [Compound 1125], below 0.5 µM; that for `CCn1c(-c2ccc(NC(=O)NCCCl)cc2)c(C#N)c2ccc(OCCCN3CCOCC3)cc21` [Compound 1126], 0.5 to 2 µM.
